Source: ChEMBL document CHEMBL1201862, “PubChem BioAssay data set” (2004)
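Method: 48-hour compound exposure of cells in 96-well plates, five concentrations, linear interpolation of endpoints. GI50: concentration for 50% inhibition of growth.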 Calls of active or inactive are those of the source. Cut-off read from the data, not from the text of the source: active = GI50 up to about 1.1 µM and inactive = higher.

Assays:
Test in all cases: growth of human tumour cells (NCI), 48 h
PC-3 = system: PC-3
KM12 = system: KM12
IGROV-1 = system: IGROV-1
SK-MEL-5 = system: SK-MEL-5
SK-MEL-28 = system: SK-MEL-28
SF-539 = system: SF-539
SK-MEL-2 = system: SK-MEL-2
MDA-N = system: MDA-N
BT-549 = system: BT-549
RXF 393 = system: RXF 393
HOP-62 = system: HOP-62
UACC-257 = system: UACC-257
SK-OV-3 = system: SK-OV-3
MCF7 = system: MCF7
SNB-19 = system: SNB-19
NCI-H226 = system: NCI-H226
SF-268 = system: SF-268
A498 = system: A498
SW-620 = system: SW-620
SR = system: SR
MOLT-4 = system: MOLT-4
TK-10 = system: TK-10
UACC-62 = system: UACC-62
LOX IMVI = system: LOX IMVI
ACHN = system: ACHN
T47D = system: T47D
CCRF-CEM = system: CCRF-CEM
DU-145 = system: DU-145
U-251 = system: U-251
M14 = system: M14
SN12C = system: SN12C
A549 = system: A549
HOP-92 = system: HOP-92
MDA-MB-231 = system: MDA-MB-231
OVCAR-8 = system: OVCAR-8
HCT-15 = system: HCT-15
SNB-75 = system: SNB-75
Hs-578T = system: Hs-578T
COLO 205 = system: COLO 205
OVCAR-3 = system: OVCAR-3
NCI-H23 = system: NCI-H23
Malme-3M = system: Malme-3M
OVCAR-5 = system: OVCAR-5
UO-31 = system: UO-31
SF-295 = system: SF-295
OVCAR-4 = system: OVCAR-4
EKVX = system: EKVX
HL-60 = system: HL-60
HT-29 = system: HT-29
786-0 = system: 786-0
NCI-H460 = system: NCI-H460
MDA-MB-435 = system: MDA-MB-435
RPMI-8226 = system: RPMI-8226
HCT-116 = system: HCT-116
K562 = system: K562
NCI/ADR-RES = system: NCI/ADR-RES

## CCN1C[C@]2(C)CC[C@H](OC)C34C5C[C@@H]6[C@@H](OC)C[C@@](OC)(C5[C@H]6OCc5ccccc5)C(C13)[C@H](OC(C)=O)[C@@H]42 (stereo partly specified)
PC-3
  GI50: 82.8 µM (inactive)
KM12
  GI50: > 100 µM (inactive)
IGROV-1
  GI50: > 100 µM (inactive)
SK-MEL-5
  GI50: > 100 µM (inactive)
SK-MEL-28
  GI50: > 100 µM (inactive)
SF-539
  GI50: > 100 µM (inactive)
SK-MEL-2
  GI50: > 100 µM (inactive)
MDA-N
  GI50: > 100 µM (inactive)
BT-549
  GI50: > 100 µM (inactive)
RXF 393
  GI50: > 100 µM (inactive)
HOP-62
  GI50: > 100 µM (inactive)
UACC-257
  GI50: 45.8 µM (inactive)
SK-OV-3
  GI50: > 100 µM (inactive)
MCF7
  GI50: > 100 µM (inactive)
SNB-19
  GI50: > 100 µM (inactive)
NCI-H226
  GI50: > 100 µM (inactive)
SF-268
  GI50: > 100 µM (inactive)
A498
  GI50: > 100 µM (inactive)
SW-620
  GI50: > 100 µM (inactive)
SR
  GI50: > 100 µM (inactive)
MOLT-4
  GI50: 73.6 µM (inactive)
TK-10
  GI50: > 100 µM (inactive)
UACC-62
  GI50: > 100 µM (inactive)
LOX IMVI
  GI50: > 100 µM (inactive)
ACHN
  GI50: > 100 µM (inactive)
T47D
  GI50: > 100 µM (inactive)
CCRF-CEM
  GI50: > 100 µM (inactive)
DU-145
  GI50: > 100 µM (inactive)
U-251
  GI50: > 100 µM (inactive)
M14
  GI50: 97.1 µM (inactive)
SN12C
  GI50: > 100 µM (inactive)
A549
  GI50: > 100 µM (inactive)
HOP-92
  GI50: 38.6 µM (inactive)
MDA-MB-231
  GI50: > 100 µM (inactive)
OVCAR-8
  GI50: > 100 µM (inactive)
HCT-15
  GI50: > 100 µM
SNB-75
  GI50: 1.18 µM (inactive)
Hs-578T
  GI50: > 100 µM (inactive)
COLO 205
  GI50: 75.2 µM (inactive)
OVCAR-3
  GI50: 64.3 µM (inactive)
NCI-H23
  GI50: > 100 µM (inactive)
Malme-3M
  GI50: > 100 µM (inactive)
OVCAR-5
  GI50: > 100 µM (inactive)
UO-31
  GI50: > 100 µM (inactive)
SF-295
  GI50: > 100 µM (inactive)
OVCAR-4
  GI50: > 100 µM (inactive)
EKVX
  GI50: > 100 µM (inactive)
HL-60
  GI50: 6.95 µM (inactive)
HT-29
  GI50: > 100 µM (inactive)
786-0
  GI50: > 100 µM (inactive)
NCI-H460
  GI50: 59.8 µM (inactive)
MDA-MB-435
  GI50: > 100 µM (inactive)
RPMI-8226
  GI50: > 100 µM (inactive)
HCT-116
  GI50: > 100 µM (inactive)
K562
  GI50: > 100 µM (inactive)
NCI/ADR-RES
  GI50: > 100 µM (inactive)
